Measurements taken from patent US4567162A, “Biologically active heptapeptides” (Farmitalia Carlo Erba, priority 1983, dated 1986).
Structures can show the parent of a compound that is named as a salt. Ends that are not written are not given here. Peptide text beside a SMILES is read from it.

How the values were obtained:
[1] = system: protein synthesis of liver tissue; test: In vivo-in vitro test: protein synthesis rate of liver tissue (14C amino acid incorporation in microsomal cell juice); parameters: species or system male rats (Wistar); settings: 4 weeks; for Δ % control rat group treated: versus treated (physiological sodium chloride s.c.) control group; for Δ % control rat group untreated: versus untreated control group; for Protein synthesis rates compared with the two control groups: male rats, daily s.c.
Experimental: De-protecting reactions are carried out according to methods known per se in polypeptide chemistry. Peptides wherein Y represents OR are prepared, for example, starting from the C-terminal amino acid esterified by the appropriate alcohol. Peptides wherein Y represents OH can be prepared, for example, by hydrolysis of peptides wherein Y represents OR. Peptides wherein Y represents NH2, NHR or NR2 can be prepared by ammonolysis of the corresponding esters or starting from a C-terminal amino acid amidated by an appropriate amine. Hydrazido or substituted hydrazido derivatives according to the invention are prepared by condensation of the N-protected peptide or amino acid with a suitably substituted hydrazine, such as benzylcarbazate, t-butylcarbazate, adamantylcarbazate, phenylhydrazine or adamantylhydrazine, or reacting the N-protected peptide or amino acid hydrazide with a suitable alkylating agent, such as an alkyl chloride, or with a suitable acylating agent such as benzylchloroformate, t-butylchloroformate, di-t-butyldicarbonate or adamantylfluoroformate. […] The compounds according to the invention show an interesting growth promoting activity in animals determined both by the in vivo-in vitro test system on protein synthesis of liver tissue (as described by K. Kammerer and A. Dey-Hazra (1980) Vet. Med. Nachr. Nr. 2, 99-112), and by the dose-dependent increase in weight gain and feed efficiency after subcutaneous or oral administration.
The growth tests were carried out for periods of 4 weeks, using groups of 6 male rats (Wistar, Hagemann, Extertal) divided in subgroups of three animals managed in Markolon cages, good shaving as litter.
Water and feed (Altromin 1321 Standard diet containing 19% crude protein): ad libitum.
The peptides of the present invention were administered in solution s.c. daily at doses of 10, 50 and 100 ng/kg, using as diluent normal saline (starting from a stock solution with 100 ng/ml).
Homogenise 3 g liver in 9 ml TKM buffer-saccharose solution, cooled on ice, in a Potter homogeniser at 600 r.p.m. for 2 min.; centrifuge at 4° C. in an ultracentrifuge with 10,000 g for 20 min., decant the supernatant=microsomal cell juice.
After calculation of protein content in the microsomal cell juice by means of the biuret method, the protein concentration was adjusted with TKM buffer to 1 mg/ml. To that, a further dilution with bidistilled water to 0.25 mg protein per ml of the microsomal cell juice followed.
Subsequently portions of 0.15 l ml reaction medium and 0.05 ml (50 mcg) of pyruvate kinase solution, as well as 0.1 ml of ^14 C amino acid mixture (=1 μCi) were added. The volume of the incubation mixture was then 1 ml each.
After a 35 minute incubation at 37° C. in a water bath, protein precipitation was performed by adding 2 ml of trichloracetic acid (10%). The sediment was washed by several additions of trichloroacetic acid and subsequent centrifugation (3600 g/5 min) until the supernatant was free from radioactivity.
The residue was dissolved in 1.0 ml Lumasolve and left overnight at 37° C., until it was clear.
Measuring the preparation was done in a PRIAS liquid scintillation counter PL (1.0 ml+5 ml scintillation liquid).
A detailed method is described in the above cited Kammerer article.

[2] = Growth test in pigs (body weight, feed consumption, feed efficiency); type: in vivo, castrated male pigs (Hybrids)
Experimental: The growth test was carried out for a period of 3 weeks, using groups of 7 castrated male pigs (Hybrids) divided in subgroups and managed in cages with flat decks. The pigs were fed during the whole experimental period with grower feed (Hoveler, normal type without feed additives), 1 kg per day. Water was given ad libitum. The weights were weekly recorded.

[3] = 50 ng/kg daily injection, 3 weeks
[4] = 50 ng/kg, 3 weeks, versus untreated group 1

Compound	Δ % control rat group treated ([1]; 10 ng/kg daily s.c.)	Δ % control rat group untreated ([1]; 10 ng/kg daily s.c.)	Δ % control rat group treated ([1]; 50 ng/kg daily s.c.)	Δ % control rat group untreated ([1]; 50 ng/kg daily s.c.)	Δ % control rat group treated ([1]; 100 ng/kg daily s.c.)	Δ % control rat group untreated ([1]; 100 ng/kg daily s.c.)	Protein synthesis rates compared with the two control groups [1]	Weight after 1 week ([2]; 50 ng/kg daily injection) [kg]	Weight after 2 weeks ([2]; 50 ng/kg daily injection) [kg]	Weight after 3 weeks ([2]; 50 ng/kg daily injection) [kg]	Weight gain [2, 3] [kg]	Weight gain in % [2, 3] [%]	Initial weight ([2]; 50 ng/kg daily injection, baseline) [kg]	Feed efficiency (kg feed/kg weight gain) ([2]; 50 ng/kg, 3 weeks)	Consumption (feed) ([2]; 50 ng/kg, 3 weeks, feed 1 kg per day) [kg]	Feed efficiency Δ % to control group [2, 4] [%]	Weight gain Δ % to control group [2, 4]	Weight gain (in words) ([2]; daily injection)
COC(=O)[C@H](CCSC)NC(=O)[C@H](Cc1c[nH]c2ccccc12)NC(=O)CNC(=O)[C@H](CC(C)C)NC(=O)[C@@H]1CCCN1C(=O)[C@@H]1CCCN1C(=O)[C@@H](N)C(C)C [Ex. 2 (TK7D), HCl.H-Val-Pro-Pro-Leu-Gly-Trp-Met-OMe] (H-VPPLGWM-OMe)	+29.4%	+11.9%	+38.2%	+19.4%	+63.2%	+41.0%	significantly different from the two control groups											
VPPLGWM [Ex. 1 (TK7), H-Val-Pro-Pro-Leu-Gly-Trp-Met-OH.HCl]	+36.1%	+17.7%	+46.0%	+26.2%	+56.5%	+35.3%	significantly different from the two control groups	15.2	17.8	20.7	9.0	76.9	11.7	2.33	21	-24.6	+32.4%	clear increase in weight gain
